Consider two compounds from patent US20250332147A1, “Methods of Treating Multiple Sclerosis” (Vanda Pharmaceuticals Inc., priority 2021, published 2025).

The subject of data set [1] is patients with relapsing multiple sclerosis (RMS). Nature of the data set: OPTIMUM phase 3 study (NCT02425644): systemic corticosteroid (SCS) use for treatment of relapse, ponesimod 20 mg vs teriflunomide 14 mg. Particulars: for proportion of patients who received ≥1 SCS therapy for treatment of relapse / least squares mean of accumulated steroid dose (prednisone equivalent doses) for treatment of relapse: full analysis set; for proportion of patients who received ≥1 SCS therapy for treatment of relapse: between study treatment start and EOS, PON 20 mg vs TER 14 mg, P<0.0001. Type of data set: in vivo, human. As to the method: Subjects were evaluated according to the treatment they were randomized to. • Primary efficacy variable/primary timepoint: The primary endpoint was annualized relapse rate (ARR) up to the end of study (EOS) defined as the number of confirmed relapses per subject-year. All available data up to EOS, regardless of treatment discontinuation was included (ITT approach). Co-Administration of Ponesimod with Corticosteroids
OPTIMUM was a phase 3, double-blind, randomized clinical trial that evaluated the efficacy, safety, and tolerability of PON (20 mg) versus TER (14 mg) in patients with RMS.
Patients with RMS aged 18 to 55 years with a relapsing course (i.e., RMS or secondary progressive MS with superimposed relapses), an Expanded Disability Status Scale (EDSS) score of 0-5.5, and recent clinical or magnetic resonance imaging activity were enrolled.
Patients were excluded from the primary analysis if they received treatment with SCS, unless it was for a multiple sclerosis (MS) relapse or short-term treatment of pulmonary conditions.
In this analysis, the proportions of patients in each treatment group who received concomitant treatment with ≥1 SCS to treat MS relapse between the start of study treatment and end of study (EOS) were compared. In addition, the mean accumulated steroid dose (prednisone equivalent doses in mg) administered to treat relapse between start of study treatment and EOS and between end of treatment (EOT) plus follow-up time was assessed.
Data are shown for analyses of the full analysis set and analyses stratified by baseline EDSS score (baseline EDSS score≤3.5 versus >3.5), prior MS treatment (disease modifying treatment [DMT] within the past 2 years versus no DMT within the past 2 years), or sex (male versus female).
The proportion of patients who received ≥1 SCS therapy for treatment of relapse is provided by treatment group; group differences were examined using Cochran-Mantel Haenszel (CMH) test and stratified by baseline EDSS and prior treatment with DMT.
The between-group difference for the mean accumulated steroid dose for treatment of relapse was evaluated using analysis of covariance models with accumulated steroid dose as the dependent variable, treatment as factor, and EDSS baseline group, and prior treatment with disease-modifying therapy within 2 years prior to randomization as covariates. EDSS baseline group was removed from the model for analyses stratified by baseline EDSS score.

For data set [2] the following is noted: in vivo; cited from earlier work.
Data set [3] has as its system peripheral blood lymphocyte count. Particulars: cited from earlier work.
The mark [4] stands for this setting: from start of study treatment to EOS, P=0.0005.
The mark [5] stands for this setting: from start of study treatment to EOT+7 days of follow up, P=0.0007.

For the compound `C/C(O)=C(\C#N)C(=O)Nc1ccc(C(F)(F)F)cc1` [TER], in data set [1], the “proportion of patients who received ≥1 SCS therapy for treatment of relapse” value was 40.10%. The “least squares mean of accumulated steroid dose (prednisone equivalent doses) for treatment of relapse” value was 4257.2 mg in data set [1] (setting [4]) and 3957.4 mg in data set [1] (setting [5]). Moreover, in data set [2], the elimination from plasma result was “eliminated slowly”.

Consider `CCC/N=C1\S/C(=C\c2ccc(OC[C@H](O)CO)c(Cl)c2)C(=O)N1c1ccccc1C` [PON, (R)-5-[3-chloro-4-(2,3-dihydroxy-propoxy)-benz[Z]ylidene]-2-([Z]-propylimino)-3-o-tolyl-thiazolidin-4-one], for which the “reduction of annualized relapse rate (ARR)” value in data set [1] (PON 20 mg vs teriflunomide (TER) 14 mg, patients with RMS) was “superior efficacy”. Besides, the “proportion of patients who received ≥1 SCS therapy for treatment of relapse” value in data set [1] is given as 29.1%. In addition, the “least squares mean of accumulated steroid dose (prednisone equivalent doses) for treatment of relapse” value turned out to be 3207.1 mg in data set [1] (setting [4]) and 2977.1 mg in data set [1] (setting [5]). For the same compound, the “proportion of patients who received ≥1 SCS therapy, stratified by baseline disability” value in data set [1] (only among patients with baseline EDSS≤3.5, compared with teriflunomide group) is on record as “significantly smaller proportion”. The “peripheral blood lymphocyte count” value in data set [3] (blocking the egress of lymphocytes from lymphoid organs) was “rapid, dose-dependent, and reversible reduction”. In addition, the “monocyte, natural killer (NK) cell and neutrophil counts” value in data set [3] (in vivo) is recorded as “not reduced”.
